# Where two headings read alike, the source gives them in different places.
# How the values were obtained:
# SNB-75 = type: cell-based; conditions: SNB-75, five-dose test
# IGROV1 = type: cell-based; conditions: Homo sapiens, IGROV-1; IGROV1, five-dose test
# SW-620 = type: cell-based; conditions: SW-620, five-dose test
# MDA-MB-435 = type: cell-based; conditions: MDA-MB-435, five-dose test
# ACHN = type: cell-based; conditions: Homo sapiens, five-dose test
# SN12C = type: cell-based; conditions: five-dose test
# SF-539 = type: cell-based, human; conditions: SF-539, five-dose test
# HCT-15 = type: cell-based; conditions: HCT-15, five-dose test
# Melanoma subpanel = type: cell-based, human
# CAKI-1 = type: cell-based, human; conditions: CAKI-1, five-dose test
# SK-OV-3 = type: cell-based, human; conditions: SK-OV-3, five-dose test
# HCT-116 = type: cell-based; conditions: Homo sapiens; HCT-116, five-dose test
# 786-0 = type: cell-based, human; conditions: 786-0, five-dose test
# UACC-257 = type: cell-based; conditions: UACC-257, five-dose test
# CCRF-CEM = type: cell-based; conditions: five-dose test
# Colon Cancer subpanel = type: cell-based, human
# [1] = test system: Full panel of NCI cancer cell lines; type: cell-based
# KM12 = type: cell-based; conditions: KM12, five-dose test
# RXF 393 = type: cell-based, human; conditions: RXF 393, five-dose test
# NCI-H23 = type: cell-based; conditions: NCI-H23, five-dose test
# NCI/ADR-RES = type: cell-based; conditions: Homo sapiens, five-dose test
# HS 578 T = type: cell-based; conditions: five-dose test
# OVCAR-3 = type: cell-based; conditions: Homo sapiens; OVCAR-3, five-dose test
# [2] = Homo sapiens, read-out: LC50 (the source's name)
smiles,measurement,setting,value
COc1ccc2c(c1)/C(=N/NC(=O)c1oc3ccccc3c1C)C(=O)N2 [Compound 5d],GI50,"MDA-MB-468; Homo sapiens, MDA-MB-468",2600 nM
same,CC50,"MDA-MB-468; Homo sapiens, MDA-MB-468, read-out: LC50",> 100000 nM
same,TGI,"MDA-MB-468; MDA-MB-468, five-dose test",6520 nM
same,GI50,SNB-75; Homo sapiens,1250 nM
same,CC50,SNB-75; [2],6040 nM
same,TGI,SNB-75,2750 nM
same,GI50,IGROV1,2100 nM
same,LC50,IGROV1,> 100000 nM
same,CC50,SW-620; [2],> 100000 nM
same,TGI,SW-620,>100000 nM
same,CC50,MDA-MB-435; [2],> 100000 nM
same,TGI,MDA-MB-435,>100000 nM
same,GI50,ACHN,1770 nM
same,GI50,SN12C; Homo sapiens,2820 nM
same,CC50,SN12C; [2],> 100000 nM
same,TGI,SN12C,>100000 nM
same,GI50,SF-539; Homo sapiens,1660 nM
same,TGI,SF-539,3160 nM
same,TGI,HCT-15,>100000 nM
same,LC50,HCT-15; Homo sapiens,> 100000 nM
same,GI50,"Melanoma subpanel; Homo sapiens, Melanoma subpanel, read-out: MG-MID (GI50 average of the subpanel)",3180 nM
same,Selectivity index,"Melanoma subpanel; full panel MID / subpanel MID, Melanoma",0.78
same,TGI,CAKI-1,3240 nM
same,GI50,CAKI-1; Homo sapiens,1560 nM
same,GI50,SK-OV-3; Homo sapiens,1820 nM
same,TGI,SK-OV-3,3830 nM
same,GI50,HCT-116,1920 nM
same,TGI,786-0,3840 nM
same,GI50,786-0; Homo sapiens,1990 nM
same,LC50 (concentration killing 50% of cells),UACC-257; Homo sapiens,> 100000 nM
same,TGI,UACC-257,>100000 nM
same,CC50,CCRF-CEM; [2],> 100000 nM
same,TGI,CCRF-CEM,>100000 nM
same,GI50,"Colon Cancer subpanel; Homo sapiens, Colon Cancer subpanel, read-out: MG-MID (GI50 average of the subpanel)",1920 nM
same,Selectivity index,"Colon Cancer subpanel; full panel MID / subpanel MID, Colon Cancer",1.30
same,LC50,"[1]; Homo sapiens, all cancer cell lines examined except HOP-62, SNB-75 and SK-MEL-2",> 100000 nM
same,GI50,"[1]; Homo sapiens, all examined cancer cell subpanels except HL60(TB), read-out: GI50 values range",1250 to 6070 nM
same,GI50,"[1]; Homo sapiens, average sensitivity for all cell lines, read-out: Full panel MG-MID (GI50)",2510 nM
same,selectivity index range over subpanels,[1]; all tested subpanels,0.78 to 1.30
same,TGI,"[1]; entire Leukaemia, Colon cancer and Prostate Cancer and the remaining examined cancer cell lines",more than 100 µM
same,CC50,KM12; [2],> 100000 nM
same,TGI,KM12,>100000 nM
same,GI50,RXF 393; Homo sapiens,1790 nM
same,TGI,RXF 393,3700 nM
same,GI50,NCI-H23; Homo sapiens,1860 nM
same,LC50,NCI-H23; Homo sapiens,> 100000 nM
same,TGI,NCI-H23,4430 nM
same,GI50,NCI/ADR-RES,2470 nM
same,LC50,NCI/ADR-RES,> 100000 nM
same,GI50,HS 578 T; Homo sapiens,2410 nM
same,LC50,HS 578 T; Homo sapiens,> 100000 nM
same,TGI,HS 578 T,7720 nM
same,GI50,OVCAR-3,1840 nM

# Source: paper PMC8245078, “Development of novel benzofuran-isatin conjugates as potential antiproliferative agents with apoptosis inducing mechanism in Colon cancer” (Journal of Enzyme Inhibition and Medicinal Chemistry, 2021)
